Results reported in patent publication US8188096B2, “Protein kinase targeted therapeutics” (Northwestern University, priority 2006, dated 2012).

How the values were obtained:
[1] = liver histological toxicity screen after chronic administration; format: in vivo; conditions: after chronic administration (FIG. 4B)
[2] = test system: LPS-induced serum cytokine levels; test: LPS-induced serum cytokine levels in acute inflammation mouse model (ELISA); format: in vivo; conditions: 25 mg/kg oral gavage, LPS 10 mg/kg i.p. 30 minutes later, serum after 6 hr, ELISA (FIG. 3)
CK1δ = CK1δ (Homo sapiens, UniProt P48730); test: in vitro phosphorylation of a standard protein or peptide substrate by purified kinase; format: biochemical; conditions: 100 mM ATP, increasing concentrations of compound, percent of maximal enzyme activity (FIG. 2)
[3] = metabolic stability in human liver microsome screen; format: in vitro ADME; conditions: human liver microsome screen (FIG. 4C)
[4] = plasma levels after oral administration (oral bioavailability); format: in vivo; conditions: plasma levels after oral administration (FIG. 4A)

Sequence of CK1δ (P48730 whole entry): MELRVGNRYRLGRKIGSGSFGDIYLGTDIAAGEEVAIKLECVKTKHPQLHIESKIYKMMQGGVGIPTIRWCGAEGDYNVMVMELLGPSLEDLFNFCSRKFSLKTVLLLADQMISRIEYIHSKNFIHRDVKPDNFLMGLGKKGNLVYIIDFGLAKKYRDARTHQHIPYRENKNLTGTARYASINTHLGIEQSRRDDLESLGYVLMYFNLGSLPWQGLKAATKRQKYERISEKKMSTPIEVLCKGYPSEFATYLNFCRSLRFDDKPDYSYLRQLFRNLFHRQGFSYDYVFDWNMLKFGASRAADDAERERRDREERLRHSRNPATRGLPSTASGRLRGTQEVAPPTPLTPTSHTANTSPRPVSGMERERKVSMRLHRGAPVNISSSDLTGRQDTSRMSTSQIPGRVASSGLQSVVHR

c1ccc(-c2nnc(N3CCN(c4ncccn4)CC3)cc2-c2ccncc2)cc1 [MW01-2-069aSRM]
liver histological toxicity [1]: no liver histological toxicity | inhibition of LPS-induced serum cytokine levels [2]: inhibit LPS-induced serum cytokine levels in vivo | inhibition of CK1δ enzyme activity (CK1δ): inhibit in vitro p38 MAPK and CK1δ enzyme activity in a concentration dependent manner | metabolic stability [3]: metabolic stability is demonstrated | oral bioavailability [4]: oral bioavailability, safety and metabolic stability is demonstrated
